Read-outs that look alike come from different tables or passages of the source.
Test system: patients with advanced solid tumors
[1] = 5 mg BID 14d-on/14d-off (N = 4)
[2] = 10 mg BID 14d-on/14d-off (N = 3)
[3] = 20 mg BID 14d-on/14d-off (N = 4)
[4] = 30 mg BID 14d-on/14d-off (N = 7)
[5] = 40 mg BID 14d-on/14d-off (N = 4)
[6] = 50 mg BID 14d-on/14d-off (N = 4)
[7] = 65 mg BID 14d-on/14d-off (N = 6)

Description: The study consisted of a dose-escalation part followed by an expansion part. In the dose escalation part, a 3-day pharmacokinetic (PK) lead-in period was conducted for a single dose in the first treatment cycle. Patients received GFH018 once on cycle 1 day 1 (C1D1) and underwent serial PK testing over the first 3 days. On C1D4, patients were administered the corresponding dose of GFH018 BID 14 days on/14 days off. The first cycle was defined as 31 days, including 3-day PK leading-in period with GFH018 single dosing and then 14d-on/14d-off dosing schedule. The subsequent cycles were 28 days. The starting dose of GFH018 was 5 mg, with eight planned dose levels up to 85 mg (5, 10, 20, 30, 40, 50, 65, and 85 mg). A modified 3+3 design was used to determine the maximum tolerance dose (MTD) and RDE, guided by safety/tolerability and PK data. Dose-limiting toxicities (DLTs) were evaluated during the first cycle at each dose level. The safety of 85 mg BID, 7 d-on/7 d-off, was explored after confirming the safety of 14 d-on/14 d-off. The DLTs were defined as hematological toxicities, including G4 neutropenia lasting for more than 5 days, G3 febrile neutropenia, G4 anemia, G4 thrombocytopenia, or G3 thrombocytopenia accompanied by bleeding, and ≥ G3 nonhematological toxicity (except for diarrhea, nausea, vomiting, and rash recovering ≤ G2 after supportive treatment within 3 days). The DLTs for cardiac toxicities included ≥ G2 cardiac valve abnormalities, ≥ G2 left ventricular ejection fraction (LVEF) decrease, any cardiovascular impairment shown in imaging, and abnormal highly sensitive troponin (hs-Tn) increased to ≥ twice the baseline in two consecutive tests with an interval ≥ 3 days. In the expansion part, patients were orally administered GFH018 RDE twice daily to further evaluate the safety of RDE and other dose regimens. […] The treatment cycle lasted 28 days.
All enrolled patients were monitored regularly after GFH018 administration. Safety assessments included adverse events (AEs), serious AEs (SAEs), laboratory assessments, vital signs, physical examinations, electrocardiography and echocardiography. AEs were graded according to the NCI Common Terminology Criteria for Adverse Events (NCI-CTCAE) v5.0. All AEs were followed up until they were stable or had recovered to baseline. Adverse events of special interest (AESIs) were predefined as echocardiographic abnormalities such as aggravated stenosis or regurgitation of the heart valves, clinically significant decreases in LVEF, brain natriuretic peptide (BNP) or N-terminal pro-brain natriuretic peptide (NT-proBNP) increases, and hs-Tn increases judged by investigators.
For the safety and efficacy analyses, data from patients who received GFH018 at the same dose in the dose-escalation and expansion cohorts were pooled. The demographic and baseline characteristics were summarized using descriptive methods. Safety and efficacy data were summarized for all patients who received at least one dose of GFH018. The ORR and DCR were summarized by cohort and overall. When the sample size of the analyzed group was ten or more, the Kaplan–Meier method was used to estimate the median PFS and TTP. In this study, treatment-emergent AEs (TEAEs) were defined as AEs that occurred on or after the first dosing date of GFH018 and no later than 30 days after the last dose of GFH018. The incidence and severity of AEs were descriptively summarized according to dose level. The PK parameters of GFH018 were calculated using noncompartmental analysis methods. All plasma PK data were summarized by cohort and visit day or time using descriptive statistics.

Cc1cccc(-c2nn3c(c2-c2ccc4ncnn4c2/C=C/C(N)=O)CCC3)n1 [GFH018]
3 (75.0%) n (%): TEAE: Anemia [6]
2 (33.3) n (%): Treatment-emergent Proteinuria (grouped PTs: proteinuria and urine protein present), any grade [7]
5 (83.3%) n (%): At least one TEAE [7] | At least one TRAE [7] | At least one TEAE (85 mg BID 7d-on/7d-off (N = 6)) | At least one TEAE (Table S3) (85 mg BID 7d-on/7d-off (N = 6))
1 (16.7) n (%): Treatment-emergent Proteinuria (grouped PTs), G1 [7] | Treatment-emergent Proteinuria (grouped PTs), G2 [7]
1 (16.7%) n (%): TEAE: Abdominal pain [7] | TEAE: Blood bilirubin increased [7] | TEAE: Constipation [7] | TEAE: Decreased appetite [7] | TEAE: GGT increased [7] | TEAE: Platelet count decreased [7] | TEAE: Proteinuria [7] | TEAE: Urine protein present [7] | TEAE: White blood cells urine positive [7] | TRAE: Proteinuria [7] | TEAE: ALP increased (85 mg BID 7d-on/7d-off (N = 6))
not significantly different: safety profile of 7 d-on/7 d-off versus 14 d-on/14 d-off regimen (85 mg BID)
7 (100%) n (%): At least one TEAE [4] | At least one TRAE [4]
2 (33.3%) n (%): TEAE: AST increased [7] | TEAE: Sinus tachycardia [7] | TEAE: White blood cell count decreased [7] | TRAE: AST increased [7] | TRAE: Anemia [7]
1 (14.3%) n (%): TEAE: ALP increased [4] | TEAE: Decreased appetite [4] | TEAE: GGT increased [4] | TEAE: Lymphocyte count decreased [4] | TEAE: Platelet count decreased [4] | TEAE: Sinus tachycardia [4] | TRAE: LDH increased [4] | TRAE: Lymphocyte count decreased [4]
1 (25.0%) n (%): TEAE: Bilirubin conjugated increased [1] | TEAE: Decreased appetite [1] | TEAE: GGT increased [1] | TEAE: LDH increased [1] | TEAE: Platelet count decreased [1] | TEAE: Proteinuria [1] | TEAE: White blood cell count decreased [1] | TRAE: Lymphocyte count decreased [1] | TRAE: Protein urine present [1] | TEAE: ALP increased [3] | TEAE: ALT increased [3] | TEAE: Abdominal distention [3] | TEAE: Anemia [3] | TEAE: Bilirubin conjugated increased [3] | TEAE: Blood albumin decreased [3] | TEAE: Blood bilirubin increased [3] | TEAE: White blood cell count decreased [3] | TEAE: White blood cells urine positive [3] | TRAE: Protein urine present [3] | TEAE: ALP increased [5] | TEAE: Anemia [5] | TEAE: Asthenia [5] | TEAE: LDH increased [5] | TEAE: Platelet count decreased [5] | TEAE: Sinus tachycardia [5] | TRAE: ALP increased [5] | TRAE: LDH increased [5] | TEAE: ALP increased [6] | TEAE: ALT increased [6] | TEAE: AST increased [6] | TEAE: Abdominal distention [6] | TEAE: Decreased appetite [6] | TEAE: GGT increased [6] | TEAE: Sinus tachycardia [6] | TEAE: Urine protein present [6] | TRAE: ALP increased [6] | TRAE: ALT increased [6] | TRAE: AST increased [6] | TRAE: GGT increased [6] | TRAE: Protein urine present [6]
3 (42.9) n (%): Treatment-emergent Proteinuria (grouped PTs), G1 [4]
2 (50.0) n (%): Treatment-emergent Proteinuria (grouped PTs), G2 [1]
4 (57.1) n (%): Treatment-emergent Proteinuria (grouped PTs: proteinuria and urine protein present), any grade [4]
1 (33.3%) n (%): TEAE: ALP increased [2] | TEAE: ALT increased [2] | TEAE: Anemia [2] | TEAE: Asthenia [2] | TEAE: Blood albumin decreased [2] | TEAE: Constipation [2] | TEAE: LDH increased [2] | TRAE: ALP increased [2] | TRAE: ALT increased [2] | TRAE: Anemia [2] | TRAE: LDH increased [2] | TRAE: Protein urine present [2]
2 (28.6%) n (%): TEAE: ALT increased [4] | TEAE: Abdominal distention [4] | TEAE: Abdominal pain [4] | TEAE: Asthenia [4] | TEAE: Bilirubin conjugated increased [4] | TRAE: ALT increased [4] | TRAE: AST increased [4]
2 (50.0%) n (%): TEAE: Blood albumin decreased [1] | TEAE: C-reactive protein increased [1] | TEAE: Sinus tachycardia [1] | TEAE: Urine protein present [1] | TEAE: Asthenia [3] | TEAE: Proteinuria [3] | TEAE: Urine protein present [3] | TRAE: Proteinuria [3] | At least one TRAE [6]
4 (57.1%) n (%): TEAE: Constipation [4] | TEAE: Proteinuria [4]
3 (42.9%) n (%): TEAE: AST increased [4] | TEAE: Anemia [4] | TEAE: Blood bilirubin increased [4] | TEAE: Hypoalbuminemia [4] | TEAE: LDH increased [4] | TRAE: Proteinuria [4]
3 (75.0) n (%): Treatment-emergent Proteinuria (grouped PTs: proteinuria and urine protein present), any grade [1] | Treatment-emergent Proteinuria (grouped PTs), G1 [3]
2 (66.7) n (%): Treatment-emergent Proteinuria (grouped PTs), G2 [2] | Treatment-emergent Proteinuria (grouped PTs: proteinuria and urine protein present), any grade [2]
0 n (%): TEAE: ALP increased [1] | TEAE: ALT increased [1] | TEAE: AST increased [1] | TEAE: Abdominal distention [1] | TEAE: Abdominal pain [1] | TEAE: Anemia [1] | TEAE: Asthenia [1] | TEAE: Blood bilirubin increased [1] | TEAE: Constipation [1] | TEAE: Hypoalbuminemia [1] | TEAE: White blood cells urine positive [1] | TRAE: ALP increased [1] | TRAE: ALT increased [1] | TRAE: AST increased [1] | TRAE: Anemia [1] | TRAE: GGT increased [1] | TRAE: LDH increased [1] | TRAE: Proteinuria [1] | Treatment-emergent Proteinuria (grouped PTs), G3 [1] | TEAE: AST increased [2] | TEAE: Abdominal distention [2] | TEAE: Abdominal pain [2] | TEAE: Bilirubin conjugated increased [2] | TEAE: Blood bilirubin increased [2] | TEAE: C-reactive protein increased [2] | TEAE: Decreased appetite [2] | TEAE: Hypoalbuminemia [2] | TEAE: Lymphocyte count decreased [2] | TEAE: Platelet count decreased [2] | TEAE: Proteinuria [2] | TEAE: Sinus tachycardia [2] | TEAE: White blood cell count decreased [2] | TEAE: White blood cells urine positive [2] | TRAE: AST increased [2] | TRAE: Lymphocyte count decreased [2] | TRAE: Proteinuria [2] | Treatment-emergent Proteinuria (grouped PTs), G1 [2] | Treatment-emergent Proteinuria (grouped PTs), G3 [2] | TEAE: AST increased [3] | TEAE: Abdominal pain [3] | TEAE: C-reactive protein increased [3] | TEAE: Constipation [3] | TEAE: Decreased appetite [3] | TEAE: GGT increased [3] | TEAE: Hypoalbuminemia [3] | TEAE: LDH increased [3] | TEAE: Lymphocyte count decreased [3] | TEAE: Platelet count decreased [3] | TEAE: Sinus tachycardia [3] | TRAE: ALP increased [3] | TRAE: ALT increased [3] | TRAE: AST increased [3] | TRAE: Anemia [3] | TRAE: GGT increased [3] | TRAE: LDH increased [3] | TRAE: Lymphocyte count decreased [3] | Treatment-emergent Proteinuria (grouped PTs), G3 [3] | TEAE: Blood albumin decreased [4] | TEAE: C-reactive protein increased [4] | TEAE: Urine protein present [4] | TEAE: White blood cell count decreased [4] | TEAE: White blood cells urine positive [4] | TRAE: ALP increased [4] | TRAE: Anemia [4] | TRAE: GGT increased [4] | TRAE: Protein urine present [4] | Treatment-emergent Proteinuria (grouped PTs), G3 [4] | TEAE: ALT increased [5] | TEAE: AST increased [5] | TEAE: Abdominal distention [5] | TEAE: Abdominal pain [5] | TEAE: Bilirubin conjugated increased [5] | TEAE: Blood albumin decreased [5] | TEAE: Blood bilirubin increased [5] | TEAE: C-reactive protein increased [5] | TEAE: Constipation [5] | TEAE: Decreased appetite [5] | TEAE: GGT increased [5] | TEAE: Hypoalbuminemia [5] | TEAE: Lymphocyte count decreased [5] | TEAE: Proteinuria [5] | TEAE: Urine protein present [5] | TEAE: White blood cell count decreased [5] | TEAE: White blood cells urine positive [5] | TRAE: ALT increased [5] | TRAE: AST increased [5] | TRAE: Anemia [5] | TRAE: GGT increased [5] | TRAE: Lymphocyte count decreased [5] | TRAE: Protein urine present [5] | TRAE: Proteinuria [5] | Treatment-emergent Proteinuria (grouped PTs), G1 [5] | Treatment-emergent Proteinuria (grouped PTs), G2 [5] | Treatment-emergent Proteinuria (grouped PTs), G3 [5] | Treatment-emergent Proteinuria (grouped PTs: proteinuria and urine protein present), any grade [5] | TEAE: Abdominal pain [6] | TEAE: Asthenia [6] | TEAE: Bilirubin conjugated increased [6] | TEAE: Blood albumin decreased [6] | TEAE: Blood bilirubin increased [6] | TEAE: C-reactive protein increased [6] | TEAE: Constipation [6] | TEAE: Hypoalbuminemia [6] | TEAE: LDH increased [6] | TEAE: Lymphocyte count decreased [6] | TEAE: Platelet count decreased [6] | TEAE: Proteinuria [6] | TEAE: White blood cell count decreased [6] | TEAE: White blood cells urine positive [6] | TRAE: Anemia [6] | TRAE: LDH increased [6] | TRAE: Lymphocyte count decreased [6] | TRAE: Proteinuria [6] | Treatment-emergent Proteinuria (grouped PTs), G2 [6] | Treatment-emergent Proteinuria (grouped PTs), G3 [6] | TEAE: ALP increased [7] | TEAE: ALT increased [7] | TEAE: Abdominal distention [7] | TEAE: Asthenia [7] | TEAE: Bilirubin conjugated increased [7] | TEAE: Blood albumin decreased [7] | TEAE: C-reactive protein increased [7] | TEAE: Hypoalbuminemia [7] | TEAE: LDH increased [7] | TEAE: Lymphocyte count decreased [7] | TRAE: ALP increased [7] | TRAE: ALT increased [7] | TRAE: GGT increased [7] | TRAE: LDH increased [7] | TRAE: Lymphocyte count decreased [7] | TRAE: Protein urine present [7] | Treatment-emergent Proteinuria (grouped PTs), G3 [7] | TEAE: ALT increased (85 mg BID 7d-on/7d-off (N = 6))
3 (50.0%) n (%): TEAE: Anemia [7] | At least one TRAE (85 mg BID 7d-on/7d-off (N = 6))
1 (25.0) n (%): Treatment-emergent Proteinuria (grouped PTs), G1 [1] | Treatment-emergent Proteinuria (grouped PTs), G2 [3] | Treatment-emergent Proteinuria (grouped PTs), G1 [6] | Treatment-emergent Proteinuria (grouped PTs: proteinuria and urine protein present), any grade [6]
3 (100%) n (%): At least one TEAE [2] | At least one TRAE [2]
2 (66.7%) n (%): TEAE: GGT increased [2] | TEAE: Urine protein present [2] | TRAE: GGT increased [2]
4 (100.0) n (%): Treatment-emergent Proteinuria (grouped PTs: proteinuria and urine protein present), any grade [3]
4 (100%) n (%): At least one TEAE [1] | At least one TRAE [1] | TEAE: Lymphocyte count decreased [1] | At least one TEAE [3] | At least one TRAE [3] | At least one TEAE [5] | At least one TRAE [5] | At least one TEAE [6]
1 (14.3) n (%): Treatment-emergent Proteinuria (grouped PTs), G2 [4]

Reference: PMC11007962, “First-in-human study of GFH018, a small molecule inhibitor of transforming growth factor-β receptor I inhibitor, in patients with advanced solid tumors” (BMC Cancer, 2024)
